Assays:
eNOS null mice = experiment: Regional cerebral blood flow by laser-Doppler flowimetry, eNOS null mice; type: in vivo; details: L-arginine 450 mg/kg, i.v., 40 minute recording period
Experimental: L-arginine infusion at 300 mg/kg, i.v., caused modest (10%) and variable elevations in regional cerebral blood flow (rCBF) after infusion in several preliminary experiments (n=4, data not shown). […] Regional cerebral blood flow (rCBF) was monitored by laser-Doppler flowimetry in groups of urethane-anesthetized, ventilated mice. Additional physiological variables were also monitored in the mice, including mean arterial blood pressure (MABP), heart rate, blood pH, PaO2, and PaCO2.
(§1) FIG. 5 is a bar graph showing regional CBF changes in wild type and eNOS null mice for 40 min after L-arginine (450 mg/kg) or saline infusion at a constant rate of 100 microliter/kg/min over 15 min. The number of mice in each group is indicated in parenthesis. Error bars denote standard error of the mean (SEM), and an asterisk (*) denotes statistically significant difference (P<0.05) compared with baseline control by one-way ANOVA followed by Fisher's protected least-squares difference test.

wild type mice = experiment: Regional cerebral blood flow by laser-Doppler flowimetry, wild type and simvastatin-treated mice; type: in vivo
Experimental: Regional cerebral blood flow (rCBF) was monitored by laser-Doppler flowimetry in groups of urethane-anesthetized, ventilated mice. Additional physiological variables were also monitored in the mice, including mean arterial blood pressure (MABP), heart rate, blood pH, PaO2, and PaCO2.
as §1
Error bars denote SEM and an asterisk (*) denotes statistically significant difference (P<0.05) compared with baseline control by one-way ANOVA followed by Fisher's protected least-squares difference test.

ecNOS protein = experiment: Western blotting of ecNOS protein levels in endothelial cells; type: cell-based, human; details: for increase in ecNOS protein levels / ecNOS expression / increase in ecNOS protein levels: 0.1 mmol/L alone
Experimental: Human endothelial cells were harvested from saphenous veins and cultured as described (15). For transfection studies, bovine aortic endothelial cells of less than 3 passages were cultured in a growth medium containing DMEM (Dulbecco's Modified Eagle's Medium), 5 mmol/L L-glutamine (Gibco), and 10% fetal calf serum (Hyclone Lot# 114577). For all experiments, the endothelial cells were placed in 10% lipoprotein-deficient serum (Sigma, Lot#26H9403 1) for 48 h prior to treatment conditions. […] Cellular viability as determined by cell count, morphology, and Trypan blue exclusion was maintained for all treatment conditions.
Cellular proteins were prepared and separated on SDS/PAGE as described (Liao, J K et al., J Biol Chem, 1995, 270:319-324.). Immunoblotting was performed using a murine monoclonal antibody to human ecNOS (1:400 dilution, Transduction Laboratories, Lexington, Ky.). Immunodetection was accomplished using a sheep anti-mouse secondary antibody (1:4000 dilution) and the enhanced chemiluminescence (ECL) kit (Amersham Corp., Arlington Heights, Ill.). Autoradiography was performed at 23° C. and the appropriate exposures were quantitated by densitometry.
Human endothelial cells were harvested from saphenous veins using Type II collagenase (Worthington Biochemical Corp., Freehold, N.J.) as previously described. Cells of less than three passages were grown to confluence in a culture medium containing Medium 199, 20 mM HEPES, 50 mg/ml ECGS (Collaborative Research Inc., Bedford, Mass.), […] heparin sulfate, 5 mM L-glutamine (Gibco), 5% fetal calf serum (Hyclone, Logan, Utah), and antibiotic mixture of penicillin (100 U/ml)/ streptomycin ([…])/Fungizone (1.25 mg/ml). For all experiments, the endothelial cells were grown to confluence before any treatment conditions. In some experiments, cells were pretreated with actinomycin D (5 mg/ml) for 1 h prior to treatment with HMG-CoA reductase inhibitors. […]

ecNOS = experiment: Assay for ecNOS activity (LNMA-inhibitable nitrite production); type: cell-based, human; details: higher concentration
wildtype SV-129 mice = experiment: Murine model of cerebral vascular ischemia (MCA occlusion), wild-type; type: in vivo; details: lovastatin treatment
From the text: The neurological motor deficit score improved in simvastatin-treated mice (n-18) by almost 2-fold compared to that of controls (n=12) (0.8±0.2 vs. 1.7±0.2, p<0.01).

ecNOS mRNA [1] = experiment: ecNOS mRNA half-life in the presence of actinomycin D; type: cell-based, human
ecNOS mRNA [2] = experiment: Quantitative RT-PCR of ecNOS mRNA in mouse aortae and brains; type: in vivo, mice
[3] = 1 mmol/L alone (concentration series), 48 h
[4] = 10 mmol/L alone (concentration series), 48 h

N=C(N)NCCC[C@H](N)C(=O)O [L-arginine]
rCBF change (eNOS null mice): −4 to +5%
elevation in regional cerebral blood flow (rCBF) (wild type mice; L-arginine 300 mg/kg, i.v., preliminary experiments): 10%
time at which increase in rCBF began (wild type mice; L-arginine 450 mg/kg, i.v., wild type mice): 5 to 10 min
maximum increase in rCBF above baseline (wild type mice; L-arginine 450 mg/kg, i.v., wild type mice, at 20-25 min): 26%
additional time for which rCBF increases were sustained (wild type mice; L-arginine infusion in simvastatin-treated mice): 20 min
maximum increase in rCBF over simvastatin baseline (wild type mice; L-arginine infusion in simvastatin-treated mice, at 15-20 min): 29-31%

CC[C@H](C)C(=O)O[C@H]1C[C@@H](C)C=C2C=C[C@H](C)[C@H](CC[C@@H]3C[C@@H](O)CC(=O)O3)[C@H]21 [lovastatin]
increase in ecNOS protein levels / ecNOS expression (ecNOS protein; 48 h): 10%
increase in ecNOS expression (ecNOS protein; [3]): 105%
increase in ecNOS expression (ecNOS protein; [4]): 180%
potency in upregulating ecNOS protein levels, less potent than simvastatin (ecNOS protein; equimolar concentrations): 10 fold
effect on ecNOS expression (ecNOS protein; not chemically-activated): had no effect on ecNOS expression
concentration needed for similar findings, compared to that of simvastatin (ecNOS): 10 fold
reduction of cerebral infarct size (wildtype SV-129 mice): also occurred with lovastatin treatment, albeit at higher relative concentrations

CCC(C)(C)C(=O)O[C@H]1C[C@@H](C)C=C2C=C[C@H](C)[C@H](CC[C@@H]3C[C@@H](O)CC(=O)O3)[C@H]21 [simvastatin]
increase in ecNOS expression (ecNOS protein; 0.01 mmol/L alone (series 0.01 to 10 mmol/L), 48 h): 1%
increase in ecNOS protein levels (ecNOS protein; 12 h): 4%
increase in ecNOS protein levels (ecNOS protein; 24 h): 21%
increase in ecNOS protein levels / ecNOS expression (ecNOS protein; 48 h): 80%
increase in ecNOS protein levels (ecNOS protein; 72 h): 90%
increase in ecNOS protein levels (ecNOS protein; 84 h): 95%
increase in ecNOS expression (ecNOS protein; [3]): 190%
increase in ecNOS expression (ecNOS protein; [4]): 310%
decrease in ecNOS protein level (ecNOS protein; simvastatin 0.1 mmol/L + ox-LDL 50 mg/ml, 24 h): 15%
ecNOS protein levels increased above basal expression (ecNOS protein; simvastatin 0.1 mmol/L + ox-LDL 50 mg/ml, 72 h): 110%
ecNOS protein levels increased above basal expression (ecNOS protein; simvastatin 0.1 mmol/L + ox-LDL 50 mg/ml, 96 h): 124%
ecNOS expression above basal expression (ecNOS protein; simvastatin 1 mmol/L + ox-LDL 50 mg/ml (TBARS 15.1 nmol/mg), 48 h): 150%
ecNOS protein levels above baseline (ecNOS protein; simvastatin 10 mmol/L + ox-LDL 50 mg/ml, 48 h): 210%±12%
half-life of ecNOS mRNA (t½) (ecNOS mRNA [1]; simvastatin 0.1 mmol/L + ox-LDL): 22 ± 3 h
half-life of ecNOS mRNA (t½) (ecNOS mRNA [1]; simvastatin alone): 43 ± 4 h
increase in baseline rCBF (wild type mice; chronic daily administration of simvastatin alone): 25%
increase in ecNOS expression in infarcted, ipsilateral hemisphere compared to contralateral side (ecNOS mRNA [2]; simvastatin 2 mg/kg, 14 days, brain, with respect to GAPDH mRNA): 1.5-to 2 fold
increase of ecNOS message compared to that of GAPDH, aortae (ecNOS mRNA [2]; simvastatin-treated mice, dose-dependent): 3 fold

L-mevalonate
reduction of ecNOS protein compared to cells treated with ox-LDL and simvastatin (ecNOS protein; addition of L-mevalonate 100 mmol/L to ox-LDL + simvastatin 1 mmol/L): 50%±5%
observable adverse effects on cellular morphology (human endothelial cell): no observable adverse effects

Source: US20050038102A1, “Upregulation of type III endothelial cell Nitric Oxide Synthase by HMG-CoA reductase inhibitors” (BRIGHAM AND WOMENS HOSPITAL, priority 1997, published 2005)
